One data set deals with L-selectin. Put plainly: Inhibition of L-selectin. In kind it is binding.
In the next data set the test system is P-selectin. Put plainly: Inhibition of P-selectin. In kind it is binding.
Data set [1] concerns the target T1, E-selectin (Homo sapiens, UniProt P16581).
T1 construct: A 1.67 kbp DNA fragment encoding a truncated structural gene for E-selectin; made in house
T1 sequence (P16581 22-556 limits assumed): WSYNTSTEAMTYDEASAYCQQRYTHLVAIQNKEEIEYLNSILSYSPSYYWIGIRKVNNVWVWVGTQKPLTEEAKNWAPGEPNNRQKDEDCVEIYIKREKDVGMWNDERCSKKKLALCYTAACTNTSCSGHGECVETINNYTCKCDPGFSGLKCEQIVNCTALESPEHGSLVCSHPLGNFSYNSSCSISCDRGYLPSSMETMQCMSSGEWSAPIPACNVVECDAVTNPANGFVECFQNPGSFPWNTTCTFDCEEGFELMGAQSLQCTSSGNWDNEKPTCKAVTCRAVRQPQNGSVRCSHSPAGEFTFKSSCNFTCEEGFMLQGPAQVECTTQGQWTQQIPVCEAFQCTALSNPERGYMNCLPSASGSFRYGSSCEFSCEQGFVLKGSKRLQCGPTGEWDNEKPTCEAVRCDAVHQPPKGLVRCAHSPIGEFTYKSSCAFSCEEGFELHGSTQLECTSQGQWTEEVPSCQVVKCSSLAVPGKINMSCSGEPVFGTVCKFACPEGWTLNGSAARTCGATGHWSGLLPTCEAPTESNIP
Description: Inhibition of SLe^x glycoconjugate / HL-60 cell binding to immobilized sol-E-selectin. Here is the method:
Analysis of compound 6 (class II compound; FIG. 1) as an inhibitor of SLe^x glycoconjugate binding to E-selectin provides an IC50 value of 0.8 mM, according to the method of S. A. DeFrees, et al., viz. J. Am. Chem. Soc. 1995, 117, 66.
A soluble form of E-selectin (sol-E-selectin) was prepared for inhibition assays of the SLe^x Mimetics. A 1.67 kbp DNA fragment encoding a truncated structural gene for E-selectin was isolated by PCR amplification of CDNA derived from messenger RNA that was isolated from IL-1 activated human endothelial cells. The CDNA was subcloned into the vector pBluescript II and was transfected into 293 cells. The clones were screened for the production of sol-E-selectin, and the clone 293#3 was selected as the stable cell line that produced the greatest amount of sol-E-selectin per cell. Sol-E-selectin was produced on a large scale from this line using a Nunc cell factory. Recombinant sol-E-selectin was isolated from the media using immunoaffinity chromatography.
The SLe^x Mimetics were assayed for ability to block the adhesion of HL-60 cells to immobilized sol-E-selectins (either on a polymeric column solid support or onto the surface of the assay vessle). Immobilized E-selectin was incubated first with inhibitor and then with HL-60 cells. The bound cells were lysed, and myeloperoxidase released from the bound cells was detected with o-phenylenediamine and hydrogen peroxide. The percentage inhibition was determined by comparing the absorbance of the resulting solution at 492 nm to that in wells containing no inhibitor.
Each data point in the E-selectin assay is a direct measure of cells bound using a quantitative enzyme assay. The values were then plotted to give the titration curve and IC50 values. On average, five assays were performed for each inhibitor, and the results were highly reproducible. […] The IC50 values reported here is derived from all the data. Procedure described herein is adopted from Wong et. al. J. Am. Chem. Soc. 1995, 177, 66-79.

Data set [2] has as its system neutrophil/P-selection-dependent rat model. The note with it: cited from earlier work; for lung injury / tissue accumulation of neutrophils: intravenous infusion of up to 200 μg, cobra venom.
For data set [3], the system named is adhesion of neutophils to endothelial cells. The note with it: cited from earlier work.
Data set [4] has as its system E-selectin. The note with it: in vitro; cited from earlier work.
The subject of a further data set is lung injury in rats. The note with it: in vivo, read-out: IC50 value in vivo for protecting against lung injury; cited from earlier work.
The conditions of data set [5]: cited from earlier work.
The test system of data set [6] is E-selectin. The note with it: cited from earlier work.
For data set [7] the following is noted: blood stream; glycosidase; cited from earlier work.

Data on three molecules can be found in patent US5830871A, “Inhibitors of E-, P- and L-selectin binding” (The Scripps Research Institute, priority 1996, dated 1998).

In general, IC50 refers to the concentration at which inhibition is half-maximal. On to `O=C(COP(=O)(O)O)[C@@H](O)[C@H](O)C[C@H]1O[C@H](CO)[C@@H](O)[C@H](O)[C@@H]1O` [Compound 6], for which the “inhibition of L-selectin” value with L-selectin (@ 3 mM) is listed as above 80%. Besides, in the data set on L-selectin (compared with sialyl lewis X), the “L-selectin inhibition activity compared with sialyl Lewis X” value was “better or equal to that of sialyl lewis X”. The “inhibition of P-selectin” value in the data set on P-selectin (@ 3 mM) was above 80%. For the same molecule, the “P-selectin inhibition activity compared with sialyl Lewis X” value in the data set on P-selectin (compared with sialyl lewis X) was “better or equal to that of sialyl lewis X”. In addition, the IC50 on E-selectin [1] came out at 800 µM. The “biological activity compared with SLe^x” value at E-selectin [1] (compared with SLe^x (0.50 mM)) was “almost the same biological activity as SLe^x”.
Regarding `CC(=O)NC1C(O)CC(OC2C(O)C(CO)OC(OC3C(CO)OC(O)C(NC(C)=O)C3OC3OC(C)C(O)C(O)C3O)C2O)(C(=O)O)OC1C(O)C(O)CO` (stereo not drawn) [SLe^x, NeuAcα2→3Galβ1→4(Fucα1→3GlcNAc], the effective intravenous concentration entry in [2] (calculated from concentrations used, 200 μg) was “less than 1 μM”. Also, in [2], the lung injury result was “dramatically reduced lung injury” and the “tissue accumulation of neutrophils” value is “diminished tissue accumulation of neutrophils”. Moreover, in [3], the “adhesion of neutrophils to endothelial cells” value is “blocks adhesion of neutophils to endothelial cells”. In addition, the “affinity for E-selectin” value with E-selectin [4] was “relatively weak”. Besides, the IC50 with lung injury in rats is around 1 µM. Also, in data set [5], the oral activity entry is “orally inactive”. Also, the “SLe^x/E-selectin interaction” value in the data set on E-selectin [6] is “inhibits the SLe^x /E-selectin interaction”. This molecule yielded an IC50 at E-selectin [1] of 500 µM. The “stability in the blood” value in [7] was “unstable in the blood stream”.
Turning to “NeuAcα2→3Galβ1→4(Fucα1→3)GlcNAcβ1, 3Galβ- [pentamer]”, in [2], the lung injury result is given as “dramatically reduced lung injury” and the “tissue accumulation of neutrophils” value is recorded as “diminished tissue accumulation of neutrophils”.
